Test results reported in patent US20040082635A1, “Fused cyclic compounds and medicinal use thereof” (priority 2001, published 2004).
Counter-ions that a name gives are not always drawn.

Target: T1, HCV polymerase (Hepatitis C virus genotype 1b, UniProt P26663)
T1 construct: a region encoding NS5B (591 amino acids; J Virol 1991 Mar, 65(3), 1105-13) was amplified by PCR; 6 His (N); made in house; host or cells: Escherichia coli
Test: biochemical
Conditions: read-out: HCV polymerase inhibitory activity IC50

T1 sequence (P26663 2420-3010): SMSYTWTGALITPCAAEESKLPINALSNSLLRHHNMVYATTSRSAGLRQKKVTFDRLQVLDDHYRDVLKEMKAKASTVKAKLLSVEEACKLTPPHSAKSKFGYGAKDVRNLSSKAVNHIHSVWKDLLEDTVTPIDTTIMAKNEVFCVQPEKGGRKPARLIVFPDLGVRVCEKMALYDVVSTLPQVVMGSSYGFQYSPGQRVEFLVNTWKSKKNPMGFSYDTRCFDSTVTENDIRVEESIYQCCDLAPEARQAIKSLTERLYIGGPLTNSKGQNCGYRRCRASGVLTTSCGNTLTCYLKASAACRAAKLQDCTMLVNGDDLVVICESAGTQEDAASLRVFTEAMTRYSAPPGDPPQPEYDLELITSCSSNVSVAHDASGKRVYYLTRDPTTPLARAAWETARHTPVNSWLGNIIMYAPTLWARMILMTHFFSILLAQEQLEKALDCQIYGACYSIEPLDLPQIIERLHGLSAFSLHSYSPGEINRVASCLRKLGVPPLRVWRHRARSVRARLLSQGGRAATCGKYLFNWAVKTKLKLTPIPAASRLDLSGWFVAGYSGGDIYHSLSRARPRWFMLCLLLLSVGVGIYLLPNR

| SMILES | IC50 |
| --- | --- |
| O=C(O)c1ccc2c(c1)nc(-c1ccc(OCc3ccc(C(=O)N4CCC(O)CC4)cc3-c3ccc(Cl)cc3)cc1)n2C1CCCCC1 [Example 354, 2-{4-[2-(4-chlorophenyl)-4-(4-hydroxypiperidin-1-ylcarbonyl)benzyloxy]phenyl}-1-cyclohexylbenzimidazole-5-carboxylic acid hydrochloride] | 13 nM |
| O=C(O)c1ccc2c(c1)nc(-c1ccc(OCc3ccncc3)cc1)n2C1CCCC1 [Example 49, 1-cyclopentyl-2-[4-(4-pyridylmethoxy)phenyl]benzimidazole-5-carboxylic acid hydrochloride] | 940 nM |
| O=C(O)c1ccc2c(c1)nc(-c1ccc(OCc3cc(C(=O)N4CCC(O)CC4)sc3-c3ccc(F)cc3)cc1F)n2C1CCCCC1 [Example 433, 2-{4-[{2-(4-fluorophenyl)-5-(4-hydroxypiperidin-1-ylcarbonyl)thiophen-3-yl}methoxy]-2-fluorophenyl}-1-cyclohexylbenzimidazole-5-carboxylic acid hydrochloride] | 14 nM |
| O=C(O)c1ccc2c(c1)nc(-c1ccc(Oc3cccc(C(F)(F)F)c3)cc1)n2C1CCCCC1 [Example 230, 1-cyclohexyl-2-[4-(3-trifluoromethylphenoxy)phenyl]-benzimidazole-5-carboxylic acid] | 170 nM |
| CN(C)C(=O)c1ccc(-c2ccc(C(F)(F)F)cc2)c(COc2ccc(-c3nc4cc(C(=O)O)ccc4n3C3CCCCC3)cc2)c1 [Example 266, 1-cyclohexyl-2-{4-[3-dimethylcarbamoyl-6-(4-trifluoromethylphenyl)benzyloxy]phenyl}benzimidazole-5-carboxylic acid hydrochloride] | 18 nM |
| CC(C)NC(=O)c1ccc(-c2ccc(Cl)cc2)c(COc2ccc(-c3nc4cc(C(=O)O)ccc4n3N3CCCCC3)c(F)c2)c1 [Example 420, 2-{4-[2-(4-chlorophenyl)-5-(isopropylcarbamoyl)benzyloxy]-2-fluorophenyl}-1-piperidinobenzimidazole-5-carboxylic acid hydrochloride] | 15 nM |
| CS(=O)(=O)Nc1ccc(-c2ccc(Cl)cc2)c(COc2ccc(-c3nc4cc(C(=O)O)ccc4n3C3CCCCC3)cc2)c1 [Example 283, 2-{4-[2-(4-chlorophenyl)-5-methanesulfonylaminobenzyloxy]phenyl}-1-cyclohexylbenzimidazole-5-carboxylic acid] | 14 nM |
| COc1cccc(CCOc2ccc(-c3nc4cc(C(=O)O)ccc4n3C3CCCCC3)cc2)c1 [Example 121, 1-cyclohexyl-2-{4-[2-(3-methoxyphenyl)ethoxy]phenyl}-benzimidazole-5-carboxylic acid] | 190 nM |
| O=C(O)c1ccc2c(c1)nc(-c1ccc(CCc3ccccc3)cc1)n2C1CCCCC1 [Example 77, 1-cyclohexyl-2-(4-phenethylphenyl)benzimidazole-5-carboxylic acid] | 510 nM |
| O=C(O)c1ccc2c(c1)nc(-c1ccc(Oc3ccccc3-c3ccccc3)cc1)n2C1CCCCC1 [Example 153, 2-[4-(2-biphenylyloxy)phenyl]-1-cyclohexylbenzimidazole-5-carboxylic acid] | 190 nM |
| CC(=O)N(c1ccc(-c2ccc(Cl)cc2)c(COc2ccc(-c3nc4cc(C(=O)O)ccc4n3C3CCCCC3)c(F)c2)c1)C(C)C [Example 469, 2-[4-{2-(4-chlorophenyl)-5-(N-acetyl-N-isopropylamino)-benzyloxy}-2-fluorophenyl]-1-cyclohexylbenzimidazole-5-carboxylic acid hydrochloride] | 24 nM |
| CC(C)NC(=O)c1cc(COc2ccc(-c3nc4cc(C(=O)O)ccc4n3C3CCCCC3)c(F)c2)c(-c2ccc(F)cc2)s1 [Example 432, 2-{4-[{2-(4-fluorophenyl)-5-(isopropylcarbamoyl)thiophen-3-yl}methoxy]-2-fluorophenyl}-1-cyclohexylbenzimidazole-5-carboxylic acid hydrochloride] | 22 nM |
| O=C(O)c1ccc2c(c1)nc(-c1ccc(Oc3ccccc3Oc3ccccc3)cc1)n2C1CCCCC1 [Example 128, 1-cyclohexyl-2-[4-(2-phenoxyphenoxy)phenyl]benzimidazole-5-carboxylic acid] | 140 nM |
| CC(C)NC(=O)Nc1ccc(-c2ccc(Cl)cc2)c(COc2ccc(-c3nc4cc(C(=O)O)ccc4n3C3CCCCC3)c(F)c2)c1 [Example 395, 2-{4-[2-(4-chlorophenyl)-5-{(isopropylcarbamoyl)amino}benzyloxy]-2-fluorophenyl}-1-cyclohexylbenzimidazole-5-carboxylic acid hydrochloride] | 16 nM |
| O=C(O)c1ccc2c(c1)nc(-c1ccc(OCc3cc(F)ccc3-c3ccc(Cl)cc3)cc1)n2C1CCCCC1 [Example 188, 2-{4-[2-(4-chlorophenyl)-5-fluorobenzyloxy]phenyl}-1-cyclohexylbenzimidazole-5-carboxylic acid] | 38 nM |
| O=C(O)c1ccc2c(c1)nc(-c1ccc(OCc3sc(CO)nc3-c3ccc(F)cc3)cc1)n2C1CCCCC1 [Example 254, 1-cyclohexyl-2-{4-[{4-(4-fluorophenyl)-2-hydroxymethyl-5-thiazolyl}methoxy]phenyl}benzimidazole-5-carboxylic acid] | 38 nM |

| SMILES | IC50 |
| --- | --- |
| COc1ccc(Br)c(COc2ccc(-c3nc4cc(C(=O)O)ccc4n3C3CCCCC3)cc2)c1 [Example 180, 2-[4-(2-bromo-5-methoxybenzyloxy)phenyl]-1-cyclohexylbenzimidazole-5-carboxylic acid] | 110 nM |
| Cc1nc(-c2ccc(C(=O)O)cc2)c(COc2ccc(-c3nc4cc(C(=O)O)ccc4n3C3CCCCC3)cc2)s1 [Example 255, 1-cyclohexyl-2-{4-[{4-(4-carboxyphenyl)-2-methyl-5-thiazolyl}-methoxy]phenyl}benzimidazole-5-carboxylic acid hydrochloride] | 38 nM |
| O=C(O)c1ccc2c(c1)nc(-c1ccc(Oc3cccc(OCc4ccc(C(F)(F)F)cc4)c3)cc1)n2C1CCCCC1 [Example 210, 1-cyclohexyl-2-{4-[3-(4-trifluoromethylbenzyloxy)phenoxy]phenyl}-benzimidazole-5-carboxylic acid] | 310 nM |
| CN(C)C(=O)c1ccc(-c2cccnc2)c(COc2ccc(-c3nc4cc(C(=O)O)ccc4n3C3CCCCC3)cc2)c1 [Example 272, 2-{4-[3-dimethylcarbamoyl-6-(3-pyridyl)benzyloxy]phenyl}-1-cyclohexylbenzimidazole-5-carboxylic acid dihydrochloride] | 66 nM |
| CC(C)NC(=O)c1ccc(-c2cc(Cl)cc(Cl)c2)c(COc2ccc(-c3nc4cc(C(=O)O)ccc4n3C3CCCCC3)c(F)c2)c1 [Example 398, 2-{4-[2-(3,5-dichlorophenyl)-5-(isopropylcarbamoyl)benzyloxy]-2-fluorophenyl}-1-cyclohexylbenzimidazole-5-carboxylic acid hydrochloride] | 77 nM |
| NC(=O)c1ccc(-c2ccc(Cl)cc2)c(COc2ccc(-c3nc4cc(C(=O)O)ccc4n3C3CCCCC3)c(F)c2)c1 [Example 270, 2-{4-[3-carbamoyl-6-(4-chlorophenyl)benzyloxy]-2-fluorophenyl}-1cyclohexylbenzimidazole-5-carboxylic acid hydrochloride] | 12 nM |
| Cc1nc(C)c(COc2cccc(Oc3ccc(-c4nc5cc(C(=O)O)ccc5n4C4CCCCC4)cc3)c2)s1 [Example 221, 1-cyclohexyl-2-{4-[3-{(2,4-dimethyl-5-thiazolyl)methoxy}phenoxy]-phenyl}benzimidazole-5-carboxylic acid] | 58 nM |
| O=C(O)c1ccc2c(c1)nc(-c1ccc(COc3ccccc3-c3ccccc3)s1)n2C1CCCCC1 [Example 252, 2-[2-(2-biphenylyloxymethyl)-5-thienyl]-1-cyclohexylbenzimidazole-5-carboxylic acid] | 320 nM |
| O=C(O)c1ccc2c(c1)nc(-c1ccc(OCCc3ccccc3)cc1)n2C1CCCC1 [Example 71, 1-cyclopentyl-2-(4-phenethyloxyphenyl)benzimidazole-5-carboxylic acid] | 620 nM |
| O=C(O)c1ccc2c(c1)nc(-c1ccc(OCc3cc(Cl)ccc3-c3cccnc3)cc1)n2C1CCCCC1 [Example 170, 2-{4-[3-chloro-6-(3-pyridyl)benzyloxy]phenyl}-1-cyclohexylbenzimidazole-5-carboxylic acid] | 48 nM |
| O=C(O)c1ccc2c(c1)nc(-c1ccc(OCc3cc(C(=O)N4CCC(O)CC4)ccc3-c3ccc(Cl)cc3)cc1F)n2C1CCCC1 [Example 411, 2-{4-[2-(4-chlorophenyl)-5-(4-hydroxypiperidin-1-ylcarbonyl)-benzyloxy]-2-fluorophenyl}-1-cyclopentylbenzimidazole-5-carboxylic acid hydrochloride] | 15 nM |
| O=C(O)c1ccc2c(c1)nc(-c1ccc(Oc3cccc(-c4ccccc4)c3)cc1)n2C1CCCCC1 [Example 154, 2-[4-(3-biphenylyloxy)phenyl]-1-cyclohexylbenzimidazole-5-carboxylic acid] | 76 nM |
| CS(=O)(=O)c1ccc(-c2ccc(Cl)cc2COc2ccc(-c3nc4cc(C(=O)O)ccc4n3C3CCCCC3)cc2)cc1 [Example 167, 2-{4-[3-chloro-6-(4-methanesulfonylphenyl)benzyloxy]phenyl}-1-cyclohexylbenzimidazole-5-carboxylic acid] | 33 nM |
| O=C(O)c1ccc2c(c1)nc(-c1ccc(OCc3cc(OCCN4CCC(O)CC4)ccc3-c3ccc(Cl)cc3)cc1)n2C1CCCCC1 [Example 370, 2-{4-[2-(4-chlorophenyl)-5-{2-(4-hydroxypiperidin-1-yl)ethoxy}benzyloxy]phenyl}-1-cyclohexylbenzimidazole-5-carboxylic acid hydrochloride] | 17 nM |
| Cc1cnc(-c2ccc(Br)c(COc3ccc(-c4nc5cc(C(=O)O)ccc5n4C4CCCCC4)cc3)c2)o1 [Example 363, 2-{4-[2-bromo-5-(5-methyloxazol-2-yl)benzyloxy]phenyl}-1-cyclohexylbenzimidazole-5-carboxylic acid hydrochloride] | 110 nM |
